pIC50: −log10 of the molar value. Where two headings read alike, the source gives them in different places.

In one test the target is KRAS G12D (Homo sapiens (Human), UniProt P01116, G12D). Briefly: KRAS G12D LoEnz Biochemical Assay, BODIPY-GDP Exchange TR-FRET (SOS1-mediated nucleotide exchange). To be noted: read-out: KRas (G12D) GDP HTRF IC50.
The target in test [1] is T1, KRAS WT (Homo sapiens (Human), UniProt P01116). Nature of the test: KRAS WT Biochemical Assay, BODIPY-GDP Exchange TR-FRET (Example 501; 3 nM KRAS WT, 3 nM SOS1, 60-minute incubation). To be noted: read-out: KRas(wt) GDP HTRF IC50. The method, boiled down: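 SOS1-mediated exchange assay: 3 nM biotin-KRAS WT with terbium-streptavidin, started with 3 nM SOS1 and 300 nM BODIPY-GDP, HEPES pH 7.5 with MgCl2. TR-FRET (520/490 nm) read after 60 min; normalized to DMSO and full-inhibition control, IC50 from 4-parameter Hill fit.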
T1 sequence (P01116-2 other isoform, or with tags, fused parts or gaps): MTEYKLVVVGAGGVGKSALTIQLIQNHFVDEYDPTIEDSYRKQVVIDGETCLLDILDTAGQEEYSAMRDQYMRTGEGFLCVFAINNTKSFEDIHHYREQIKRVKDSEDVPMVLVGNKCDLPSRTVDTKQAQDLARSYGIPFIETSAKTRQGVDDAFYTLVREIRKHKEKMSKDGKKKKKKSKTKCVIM

For test [2], the target named is T1, KRAS WT. Nature of the test: KRAS WT Biochemical Assay, BODIPY-GDP Exchange TR-FRET (Example 502; 0.06 nM KRAS WT, 15 nM GDP, 300 nM SOS1, 120-minute incubation). Conditions: read-out: KRas HTRF IC50. The method, boiled down: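 Biotin-tagged recombinant KRAS WT (0.06 nM) preloaded with 15 nM GDP and Tb-streptavidin, 10 min RT, then exchange started with 300 nM SOS1 plus 300 nM BODIPY-GDP in HEPES pH 7.5 buffer with MgCl2. TR-FRET 520/490 ratio read after 120 min; normalized to DMSO and full-inhibition control; IC50 from 4-parameter fit.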

For test [3], the system named is AsPC-1 (homozygous mutant KRAS G12D human pancreatic cell line). Briefly: KRAS 3D-Cell Proliferation Assay, AsPC-1 (CellTiter-Glo 3D, 7 days). The format is cell-based. Conditions: AsPC-1 3D culture, read-out: Prolif AsPC-1 3D ATP IC50. On the procedure: Example 503: KRAS 3D-Cell Proliferation Assays. Cellular potencies of compounds are assessed by evaluating inhibition of proliferation in 3D cultures of homozygous mutant KRAS G12D human pancreatic cell lines (AsPC-1 and HPAC) as compared to a KRAS wild type human lung adenocarcinoma cell line (PC-9 and/or H1975). Cells are seeded into 384-well black round-bottom, ultra-low attachment assay plates in 50 uL cell growth medium (RPMI-1640 with 10% fetal bovine serum and 2 mM L-glutamine). After overnight incubation at 37° C. and 5% CO2, compounds solubilized in DMSO are added as dilution series to the wells in a total volume of 150 nL (0.3% DMSO final). The cells are incubated for 7 days at 37° C. and 5% CO2. Cell proliferation is quantitated by addition of 40 uL/well of CellTiter-GloO 3D (Promega), and the well contents are mixed 20× at high speed using liquid handling automation workstation (Bravo with 384-well head) and centrifuged at 1500 rpm for 2 minutes to eliminate bubbles. This reagent in combination with mechanical disruption releases the cellular ATP to promote activity in a luciferase-based enzyme/substrate chemiluminescent detection system. After a 30-minute incubation under ambient conditions with shaking and an additional 10 minutes without shaking, the luminescence is read on a plate reader (e.g. EnVision [PerkinElmer]). The results are normalized to percent inhibition based on the following control samples: DMSO (0% inhibition) and 1 uM staurosporine (100% inhibition). The normalized luminescence results are plotted against compound concentration, and the data are fit to a 4-parameter Hill equation to determine the IC50 values.

The subject of test [4] is PC-9 (KRAS wild type human lung adenocarcinoma cell line). Briefly: KRAS 3D-Cell Proliferation Assay, PC-9 (CellTiter-Glo 3D, 7 days). Type of test: cell-based. Conditions: PC-9 3D culture, read-out: Prolif PC9 3D ATP IC50. The method, boiled down:
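Cells were grown as 3D cultures in ultra-low attachment plates in RPMI-1640 with 10% FBS and 2 mM glutamine. Compound dilution series (0.3% DMSO final) were added after overnight culture, and plates were incubated for 7 days at 37 °C. CellTiter-Glo 3D luminescence was normalised to DMSO and 1 uM staurosporine, and IC50 was taken from 4-parameter Hill fits.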

KRAS G12D, sequence (P01116-2 other isoform, or with tags, fused parts or gaps G12D): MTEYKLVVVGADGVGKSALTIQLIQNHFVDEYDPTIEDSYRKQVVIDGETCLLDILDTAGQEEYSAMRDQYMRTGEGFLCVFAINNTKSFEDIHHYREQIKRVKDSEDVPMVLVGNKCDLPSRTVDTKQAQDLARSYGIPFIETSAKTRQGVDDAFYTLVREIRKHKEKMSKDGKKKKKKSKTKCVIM

Consider `C[C@@H]1Oc2nc(-c3cc(N)nc4ccccc34)c(F)c3nc(OC[C@]45CCN4CC(F)(F)C5)nc(c23)N2C[C@H]3CC[C@H](N3)[C@@H]12` [Compound 79, 4-((5S,5aS,6S,9R)-12-(((R)-3,3-Difluoro-1-azabicyclo[3.2.0]heptan-5-yl)methoxy)-1-fluoro-5-methyl-5a,6,7,8,9,10-hexahydro-5H-4-oxa-3,10a,11,13,14-pentaaza-6,9-methanonaphtho[1,8-ab]heptalen-2-yl)quinolin-2-amine], for which the negative logarithm of the IC50 (pIC50) on KRAS G12D is 7.64; at KRAS WT [1], 6.02; on KRAS WT [2] it was 5.82; in test [3] it was 5.39; in test [4], 4.70.
With `Cc1ccnc(-c2nc3c4c(nc(OC[C@]56CCN5CC(F)(F)C6)nc4c2F)N2C[C@H]4CC[C@H](N4)[C@H]2[C@H](C)O3)c1C(F)(F)F` [Compound 88, (5S,5aS,6S,9R)-12-(((R)-3,3-Difluoro-1-azabicyclo[3.2.0]heptan-5-yl)methoxy)-1-fluoro-5-methyl-2-(4-methyl-3-(trifluoromethyl)pyridin-2-yl)-5a,6,7,8,9,10-hexahydro-5H-4-oxa-3,10a,11,13,14-pentaaza-6,9-methanonaphtho[1,8-ab]heptalene], the pIC50 on KRAS G12D was 5.83; on KRAS WT [2] it was 5.79; in test [3] (Homo sapiens, ASPC1, 168 h) it was 4.70; in test [4] (Homo sapiens, PC-9, 168 h), 4.70.

For the origin of these results see patent publication US20240025919A1, “AZA-TETRACYCLIC OXAZEPINE COMPOUNDS AND USES THEREOF” (Genentech, Inc., priority 2022, published 2024).
